# Experiments:
# [1] = test system: Fifth-passage human periodontal membrane cells; assay: mRNA expression of CCL11, CCR3 and GDF11 in human periodontal membrane cells (real-time RT-PCR); type: cell-based; details: 5, 10 and 30 ng/μl added; after 32 hours
# Description: Fifth-passage human periodontal membrane cells were plated in a DMEM containing 10% FBS in collagen-coated 35 mm dishes (IWAKI) at a density of 2×10^4 cells/ml. After 9 hours, an ALK5 inhibitor (SB431542) was added to final concentrations of 5 ng/μl, 10 ng/μl, and 30 ng/μl. Further, a CCR3 antagonist (SB328437) was added to final concentrations of 5 ng/μl, 10 ng/μl, and 30 ng/μl. After 32 hours, mRNA was extracted, and real-time RT-PCR was performed on CCL11, CCR3, and GDF11.
# [2] = test system: Eleventh-passage human periodontal membrane cells; assay: Migratory capacity of senescent cells of human periodontal membrane (TAXIscan-FL, SDF1 gradient); type: cell-based; details: 48 hours, n=4, control 53.8 ± 4.6
# Description: Eleventh-passage human periodontal membrane cells were plated in DMEM containing 10% FBS in collagen-coated 35 mm dishes (IWAKI) at a density of 2×10^4 cells/ml. After 20 hours, an ALK5 inhibitor (SB431542) was added to a final concentration of 10 ng/μl. Further, a CCR3 antagonist (SB328437) was added to a final concentration of 5 ng/μl. After 48 hours, the cells were detached, and Real-time horizontal chemotaxis analysis was performed using TAXIscan-FL (Effector Cell Institute, Tokyo) so as to measure the migratory capacity. Specifically, channels optimized (8 μm) for the size of cells are formed between a silicon plate having 6 μm pores and a glass plate, and 1 μl of treated periodontal membrane cells (10^5 cells/ml) was injected to one end portion of an associated one of the channels (n=4). Then, 1 μl of 10 ng/μl SDF1 was placed on the opposite side portion so as to form a certain constant concentration gradient. Based on the video images of migration, the number of migrating cells after 12 hours was measured.
# [3] = test system: Fourth-passage human dental pulp cells; assay: Migration promotion of dental pulp cells by culture supernatant of senescent dental pulp stem cells (TAXIscan-FL); type: cell-based; details: 1 μl DPSC CM containing 1 μl of 20 mg/ml compound as attractant; n=4; non 5.0 ± 1.0
# Description: Non-separated 22nd-passage human dental pulp stem cells were brought into a state of 50% confluence. The medium was replaced with a serum-free medium. After 24 hours, the culture conditioned medium was collected. The supernatant was concentrated approximately 40-fold using Amicon Ultra-15 Centrifugal Filter Unit with Ultracel-3 membrane (Millipore, Billerica, Mass.) with 3-kDa molecular cut. Proteinase inhibitors (Halt™ proteinase inhibitor cocktail EDTA-free, Thermo Scientific, Rockford, Ill., USA) was added. The mixture was dispended to be stored at −80° C. Protein content was measured using Bradford Ultra™ (Expedeon, Cambridge, UK).
# Fourth-passage human dental pulp cells were plated in DMEM containing 10% FBS in 10 cm dishes (FALCON) at 2×10^4 cells/ml. After 48 hours, the cells were detached, and a real-time horizontal chemotaxis analysis was performed using TAXlscan-FL (Effector Cell Institute, Tokyo) to measure the migratory capacity. Specifically, channels optimized (8 μm) for the size of the cells were formed between a silicon plate having 6 μm pores and a glass plate, and 1 μl of treated dental pulp cells (10^5 cells/ml) was injected to one end portion of each of the channels (n=4). As a control, one of the channels received nothing at the opposite end portion. […] Based on the video images of migration, the number of migrating cells after 12 hours was measured.
# [4] = test system: post-pulpectomy root canal of a tooth of the canine of middle or advanced age; assay: Dental pulp regeneration after trypsin pretreatment plus root canal filler containing CCR3 antagonist; type: in vivo, dog; details: pretreatment with trypsin (50 μg/ml with nanobubble liquid, 10 minutes) then filler with 200 ng; after 14 days; vs no pretreatment
# Description: After 7 to 14 days following a pulpectomy treatment, the treated root canal underwent alternate washing, and then, washing with physiologic saline. Smear clean was then allowed to react for 2 minutes. The root canal was then further washed with physiologic saline, and dried. Further, FRANCETIN⋅T⋅POWDER (2,500 USP of crystalized trypsin per 10 mg) (MOCHIDA PHARMACEUTICAL CO., LTD.) was mixed with a nanobubble liquid into a 50 μg/ml (0.05%) solution. The solution was allowed to react for 10 minutes. The root canal was washed with physiologic saline, and dried. In the same manner as in Example 3, a root canal filler was prepared by suspending 1×10^6 allogeneic dental pulp stem cells, which had been membrane-isolated, in 40 μl of a scaffold (Koken Atelocollagen Implant), and by suspending 3 μl of a 100 μg/ml G-CSF (NEUTROGIN). Further a CCR3 antagonist (SB328437, 200 ng) was added to the root canal filler. The root canal filler was injected into the post-pulpectomy root canal. After 14 days following the transplantation, the tooth was extracted, and 5 μm paraffin sections were prepared. The paraffin sections were then H-E stained to undergo morphological observation.
compound,measurement,setting,value
"NC(=O)c1ccc(-c2nc(-c3ccc4c(c3)OCO4)c(-c3ccccn3)[nH]2)cc1 [ALK5 inhibitor, SB431542]",increase of expression of GDF11 mRNA,[1],5 times
same,mRNA expression of CCL11,[1],completely suppressed
same,"number of migrating cells after 12 hours, Average ± SD",[2]; final concentration 10 ng/μl,21.3 ± 10.9
same,"number of migrating cells after 12 hours, Average ± SD",[3],12.7 ± 2.1
"COC(=O)[C@H](Cc1ccc([N+](=O)[O-])cc1)NC(=O)c1cccc2ccccc12 [CCR3 antagonist, SB328437]",amount of regenerated dental pulp tissue,[4],significant increase
same,mRNA expression of CCL11,[1],completely suppressed
same,mRNA expression of CCR3,[1],completely suppressed
same,"number of migrating cells after 12 hours, Average ± SD",[2]; final concentration 5 ng/μl,23.3 ± 10.7
same,"number of migrating cells after 12 hours, Average ± SD",[3],23.7 ± 5.1
